Results on one molecule are retold here after patent publication US20210052703A1 (SHANGHAI BENEMAE PHARMACEUTICAL CORPORATION, priority 2018, published 2021).

This test relates to patients with type 2 diabetes. Briefly: trial 5C: Beinaglutide with metformin, multicenter, type 2 diabetes. The conditions noted are these: control group (metformin alone group); 12 weeks of treatment. Format: in vivo, human. An excerpt:
Note: Covariance analysis was used for comparison between groups. The dependent variable was the change in body weight relative to baseline, and the covariate was baseline. Body weight change from baseline=post-treatment−baseline. Data from 5C test data.

Consider `CN(C)C(=N)N=C(N)N` [metformin, reference compound], for which the “proportion of subjects with weight loss from the baseline ≥3%” value is given as 27.27% and the “proportion of subjects with weight loss ≥5%” value was found to be 10.39%.
